According to article PMC4265309 (Chemical biology & drug design, 2014):

What was measured:
[1] = Peptide circular dichroism; format: physicochemical; conditions: secondary structure by CD, 25 °C
[2] = pH sensitivity of lytic activity; format: biochemical; conditions: ratio calculated from the average IC50 values of a peptide at pH=7.4 and pH=5.5
CHO-K1 cells [3] = experiment: Peptide induced cell lysis; format: cell-based; conditions: CHO-K1, normal cell culture conditions, no peptide (Figures 2 and 4)
[4] = Peptide self-assembly and aggregation in solution; format: physicochemical
CHO-K1 cells [5] = experiment: Measurement of cell surface pH, CHO-K1; format: cell-based; conditions: from pH=8.4 to pH=6.90, medium pH=7.4

Compound | Structure pH=6.5 [1] | Structure pH=7.4 [1] | pH sensitivity [2] | also measured
WLGALFKALSHLLGHHPH [CL-22] | Coil | α-helix | 13.8 | 
FLGALFRALSRLL [CL-1] | Coil | Coil | 1.2 | 
CO/C1=C\C(C)=C\[C@@H](C)[C@@H](O)[C@@H](C)C/C(C)=C/C=C/[C@H](OC)[C@@H]([C@@H](C)[C@@H](O)[C@H](C)[C@@]2(O)C[C@@H](O)[C@H](C)[C@@H](C(C)C)O2)OC1=O [Bafilomycin A1] |  |  |  | Effect on cell viability (CHO-K1 cells [3]): very limited effects on cell viability
FLGALFKALSKLL [PTP-7] |  |  |  | Cytotoxicity to A549 relative to CCD-13Lu (A549 and CCD-13Lu cells): equally active to both cells
FLGALFRALSHLL [CL-7] | Coil | α-helix | 2.2 | Aggregation at physiological pH ([4]; 40 µM peptide, 1,8-ANS 20 µM, excitation 369 nm, SEM at pH=7.4): underwent self-assembly at physiological pH; Stability of peptide aggregates under acidic conditions ([4]; 1,8-ANS 20 µM, 40 µM peptide, particle analysis at 80 µM): unstable and dissolved under acidic conditions
WLGALFKALSHLL [CL-10] | Coil | α-helix | 2.5 | 
Nc1ncnc2c1nc(Sc1ccc(Cl)cc1)n2[C@@H]1O[C@@H]2COP(=O)(O)O[C@H]2[C@H]1O [Peptide 8-CPT-cAMP, 8-CPT-cAMP] |  |  |  | Effect on cell viability (CHO-K1 cells [3]): no effects on the viability; Time to reduction of cell surface pH (CHO-K1 cells [5]): ≤ 30 minutes
WLGALFHALSKLL [CL-9] | Coil | α-helix | 3.0 | 
